No end group written: not given here.

Assay [1] can be described thus: Fluorescence ANTS/DPX vesicle leakage assay in POPC/POPG (3:1). Conditions: ANTS/DPX, POPC/POPG (3:1) 100 nm vesicles, P/L about 1:160 per peptide, mixtures 1:1, 10 mM HEPES pH 7.5, 155 mM NaCl, 30 °C, 600 s, % of Triton-X-100 leakage, fluorescence, mean of n = 3. On the procedure: The synergy was also investigated by a fluorescence ANTS/DPX leakage assay[24],[27],[30]. As described in the Methods section, leakage from POPC/POPG (3:1) vesicles was measured for 10 minutes after the addition of vesicles to a peptide solution. Leakage is expressed as percentage of the full leakage, which was obtained after addition of detergent. A synergy factor was defined to describe the enhancement of leakage of the mixture compared to the sum of the extent of leakage for each component. […] In general a synergy factor above 2 indicated synergy. […] In the leakage assay, this pore formation can be studied under more controlled conditions. Here we use two lipid compositions for the vesicles, which are mimicking bacterial membranes.
Leakage of small unilamellar vesicles induced by the peptides was studied using a standard fluorescence assay.
The appropriate lipids for each experiment were dissolved in CHCl3, together with 0.02 mol-% Rhodamine-PE (Rh-PE). […] This stock suspension was subjected to 10 freeze-thaw cycles and then frozen. Appropriate aliquots of the stock lipid suspension were unfrozen each day and extruded (41 times) through polycarbonate membranes with 100 nm pore size, and stored at room temperature overnight. The fluorophore and quencher outside the vesicles were removed by size exclusion chromatography using spin-columns (Pierce centrifuge column, 2 ml, Life Technologies GmbH, Darmstadt, Germany) filled with Sephacryl 100-HR (2 min, 1500 × g). For elution, a 10 mM HEPES buffer (pH 7.5) was used, containing 155 mM NaCl to balance the osmolarity. After extrusion and removal of the external dye and quencher, the lipid concentration usually decreases. Therefore, before each set of measurements a rhodamine spectrum was recorded to determine the actual concentration of lipids, which was referenced to a spectrum taken of vesicles made by sonification without any subsequent treatment.
Fluorescence experiments were performed on a FluoroMax2 spectrofluorimeter (HORIBA Jobin Yvon, Unterhaching, Germany) equipped with a thermostated sample holder and magnetic stirrer, using an excitation wavelength of 355 nm, an emission wavelength of 508 nm, and slit widths of 5 nm. The peptide solutions were placed in elution buffer in a 1 cm standard cuvette at 30 °C. 100 s after the start of the measurement lipid vesicles were added, and the intensity of the fluorescence at 508 nm was recorded. The leakage was measured during 600 s after addition of vesicles, and the measurement was terminated after addition of Triton-X-100 (0.25% v/v), which dissolved the vesicles, and yielded 100% leakage. To determine the background signal of the vesicles themselves, several blanks were recorded per measurement set. From the leakage values of the peptides alone and of the mixture of two peptides a synergy factor SF was calculated:3 SF=L(A+B)/[L(A)+L(B)] […] Measurements were repeated three times and average values and standard deviations calculated for the leakage and the synergy factors. An average SF ≥ 2 was taken to indicate synergy.

In a further assay the test system is E. coli DSM 1103. The assay is described as follows: Checker-board assay (FICI). The class given is cell-based, Escherichia coli. To be noted: below 0.5 = synergistic activity. On the procedure: A suitable method to study synergistic antimicrobial activity is the so-called checker-board assay, described in the Methods section. We performed such experiments on one Gram-negative bacterium, E. coli, and one Gram-positive one, S. aureus. From this method a fractional inhibitory concentration index (FICI) is determined, and when this is below 0.5, the peptides are said to have a synergistic effect against bacteria. This is the biologically relevant effect, but we are here interested in the atomistic details of the interactions behind the effect. Therefore we also use biophysical methods.
The antimicrobial activity of the peptides was investigated with a standard MIC assay[87],[88] on one Gram positive (Staphylococcus aureus, DSM 1104, ATCC 25923) and one Gram negative bacterial strain (Escherichia coli, DSM 1103, ATCC 25922). Bacteria were grown in Müller-Hinton medium (MH) at 37 °C and 220 rpm. Overnight cultures were inoculated from a single colony and grown for approximately 16 h. Day cultures were grown for approximately 3 h until they reached the exponential growth phase. These suspensions were diluted with MH-medium to a concentration of 10^6 colony-forming units (CFU) per ml. The microtiter plates (96 wells of 100 µL) were filled with 50 µL of MH, and serial 2-fold dilutions of each peptide were arranged in triplets along the columns. […] The MIC value was determined visually, as the lowest peptide concentration which inhibited bacterial growth in at least two out of three columns.
To visualize synergy between different peptides, a two-dimensional dilution assay was used[89],[90]. […] From these values, fractional inhibitory concentration indices (FICIs) were calculated with the following formula[89],[91]:1 FICI=[MIC(A)^comb/MIC(A)^alone]+[MIC(B)^comb/MIC(B)^alone] In this formula, MIC(A)^alone is the MIC value determined for peptide A alone, and MIC(A)^comb is the concentration of peptide A at the MIC determined for the combination. […]

[2] abbreviates: Table S3 series (charge mutants).
Where [3] appears, read: Table S7 series (PGLa-to-MSI mutants).

Regarding “GIGKFLHSAKKFGKAFVGKIMNS-NH 2 (GIGKFLHSAKKFGKAFVGKIMNS-NH2) [MAG2-E19K-amide, amidated MAG2 E19K mutant]”, in assay [1] (setting [2]), the “Leakage, mean value” is listed as 2.9%.

Turning to “GIGKFLHSAKKFGKAFVGKIMNS-OH [MAG2-E19K, MAG2 charge mutant E19K]”, the “Leakage, mean value” in assay [1] (setting [2]) was found to be 4.2%.

For “GMASKAGAIAGKIAKIAGKIA-NH2 [PtM-c1, PGLa to MSI-103 mutant, segment C replaced]”, in the assay with E. coli DSM 1103, the “FICI in combination with MAG2-WT” value is on record as “below 0.5”. Besides, the “Leakage, mean value” in assay [1] (setting [3]) is given as 1.4%.

On to “GMASKAGKIAGKIAKVALKAL-NH2 (also: 15N-labeled Ala10) [PtM-A8K, PGLa single mutant A8K]”, for which the “Leakage, mean value” in assay [1] (setting [3]) turned out to be 2.5%.

As for “GMASKIGAIAGKIAKVALKAL-NH2 (also: 15N-labeled Ala10) [PtM-A6I, PGLa single mutant A6I]”, the “Leakage, mean value” in assay [1] (setting [3]) was found to be 2.0%.

For the substance “KIAGKAGAIAGKIAKVALKAL-NH2 [PtM-a2, PGLa to MSI-103 mutant, three amino acids converted]”, in the assay with E. coli DSM 1103, the “FICI in combination with MAG2-WT” value is given as “below 0.5”. For the same substance, the “Leakage, mean value” in assay [1] (setting [3]) turned out to be 2.4%.

Take “KIAGKIGKIAGKIAKIAGKIA-NH2 [MtP-A7G, MSI-103 to PGLa single mutant A7G]”: the “FICI in combination with MAG2-WT” value with E. coli DSM 1103 is reported as “below 0.5”. In addition, the “Leakage, mean value” in assay [1] (Table S11 series (MSI-to-PGLa mutants)) is 1.4%.

The values above are taken from publication PMC5640672, “Molecular mechanism of synergy between the antimicrobial peptides PGLa and magainin 2” (Scientific Reports, 2017).
